These results are taken from patent US10766928B2, “Targeted conformationally-constrained kinked endosomal disrupting peptides” (priority 2012, dated 2020).

Data set [1] relates to endosomes of Jurkat lymphocytes. Description: Endosome disruption in Jurkat lymphocytes: release of carboxyfluorescein from disulfide probe Compound 2, flow cytometry. The note with it: for Efficacy (% of 1): % of the effect of compound 1, calculated span of dose-response curve, ± standard deviation; for Efficacy (% of 1) / Efficacy (% of max. 1): Jurkat; for Efficacy (% of max. 1): % change in cellular fluorescence relative to maximal response of Compound 1 (100%). A digest of the protocol: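 Human Jurkat cells treated with compounds plus disulfide probe Compound 2 (2.5 μM) for 14 h at 37 °C. Cytoplasmic release of pH-sensitive fluorophore Compound 3 quantified by flow cytometry. IC50 by non-linear regression; efficacy as % fluorescence change relative to Compound 1 maximum (100%).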

Data set [2] in a line: Thermodynamic solubility in PBS (pH 7.4). In kind it is physicochemical. The note with it: phosphate buffered saline; for solubility at 24 h: Table 1. An excerpt:
Values in parentheses represent 95% confidence intervals. N.D., not determined.
Measurements represent duplicate or more replicates, with active peptides subjected to multiple replicates. ND: not determined. The peptide was non-toxic and soluble in cell culture medium at this concentration.

The mark [3] stands for this setting: PBS pH 7.4, 24 hours at 22° C., ±S.D., read-out: Solubility (aq.).
[4] abbreviates: pH 7.4, Table 1, PBS pH 7.4, 24 hours at 22° C., ±S.D., read-out: Solubility (aq.).
[5] abbreviates: read-out: Potency, Table 2, EC50 ± standard deviation, Jurkat lymphocytes, disulfide-linked fluorescent probe (2.5 μM), 14 h.
The mark [6] stands for this setting: read-out: Toxicity, Table 3, IC50, Jurkat, 48 h at 37° C., footnote a: non-toxic and soluble in cell culture medium at this concentration.
Where [7] appears, read: pH 7.4, Table 3, PBS pH 7.4, 24 h at 22° C., read-out: Solubility.
Setting [8] is: read-out: Potency (EC50), Table 1, Jurkat lymphocytes, probe Compound 2 (2.5 μM), 14 hours, 95% confidence interval in neighbouring cell.

Converted amounts (≈) assume the structure as drawn. Like-named read-outs stand apart in the source and are kept apart here. Non-standard residues stand in square brackets, D forms with d. Residues, ends and D or L forms follow the SMILES beside them. *: point of attachment. Pentanoyl(5-NH-cholesteryl) = CC(C)CCC[C@@H](C)[C@H]1CC[C@H]2[C@@H]3CC=C4C[C@@H](NCCCCC(=O)*)CC[C@]4(C)[C@H]3CC[C@]12C; Cholesteryloxycarbonyl = CC(C)CCC[C@@H](C)[C@H]1CC[C@H]2[C@@H]3CC=C4C[C@@H](OC(=O)*)CC[C@]4(C)[C@H]3CC[C@]12C; PEG3 = NCCOCCOCCOCCC(=O)O; Pra = C#CC[C@H](N)C(=O)O; Aib = CC(C)(N)C(=O)O; Ahx = NCCCCCC(=O)O; βAla = NCCC(=O)O

The term solubility denotes the dissolved amount per volume that the medium holds. As to `CC(C)CCC[C@@H](C)[C@H]1CC[C@H]2[C@@H]3CC=C4C[C@@H](NCCCCC(=O)NCCC(=O)N[C@@H](CCC(=O)O)C(=O)N[C@@H](CCC(=O)O)C(=O)NCCOCCOCCOCCC(=O)NCCOCCOCCOCCC(=O)NC(C)(C)C(=O)NC(C)(C)C(=O)NC(C)(C)C(=O)NC(C)(C)C(=O)N[C@@H](Cc5c[nH]c6ccccc56)C(=O)N[C@@H](Cc5c[nH]c6ccccc56)C(=O)N[C@@H](C)C(=O)N[C@@H](Cc5ccc(O)cc5)C(=O)N[C@@H](Cc5c[nH]c6ccccc56)C(=O)N5CCC[C@H]5C(=O)N5CCC[C@H]5C(=O)N[C@H](C(=O)N[C@@H](C)C(N)=O)C(C)C)CC[C@]4(C)[C@H]3CC[C@]12C` [Compound 26, R = BEEOOUUUUWWAYWPPVA-CONH2] ({Pentanoyl(5-NH-cholesteryl)-βAla}-EE[PEG3][PEG3][Aib][Aib][Aib][Aib]WWAYWPPVA-NH2), the EC50 in data set [1] (14 h) was determined as 0.1 µM. The same compound gave an IC50 in the data set on Jurkat lymphocytes (48 h) of 8 µM. Also, in data set [2] (setting [3]), the solubility at 24 h is 14 µM (≈ 38.1 µg/mL).

In the case of `CC(C)CCC[C@@H](C)[C@H]1CC[C@H]2[C@@H]3CC=C4C[C@@H](NCCCCC(=O)N[C@@H](CCC(=O)O)C(=O)N[C@@H](CCC(=O)O)C(=O)NCCCCCC(=O)NCCCCCC(=O)N[C@@H](C)C(=O)N[C@@H](C)C(=O)N[C@@H](C)C(=O)N[C@@H](Cc5c[nH]c6ccccc56)C(=O)N[C@@H](Cc5c[nH]c6ccccc56)C(=O)N[C@@H](C)C(=O)N[C@@H](Cc5ccc(O)cc5)C(=O)N[C@@H](Cc5c[nH]c6ccccc56)C(=O)N5CCC[C@H]5C(=O)N5CCC[C@H]5C(=O)N[C@H](C(=O)N[C@@H](C)C(N)=O)C(C)C)CC[C@]4(C)[C@H]3CC[C@]12C` [Compound 5, R = EEXXAAAWWAYWPPVA-CONH2] ({Pentanoyl(5-NH-cholesteryl)}-EE[Ahx][Ahx]AAAWWAYWPPVA-NH2), the EC50 in data set [1] (14 h) is 0.4 µM. In the data set on Jurkat lymphocytes (48 h), this compound gave an IC50 of 14 µM. The solubility thermodynamic at 24 h in data set [2] (setting [4]) amounted to 10 ± 1 µM (≈ 23.4 µg/mL).

As to `CC(C)[C@H](NC(=O)[C@@H](NC(=O)[C@@H]1CCCN1C(=O)[C@@H]1CCCN1C(=O)[C@H](Cc1ccc(O)cc1)NC(=O)[C@H](Cc1c[nH]c2ccccc12)NC(=O)[C@H](C)NC(=O)[C@H](Cc1ccc(O)cc1)NC(=O)[C@H](Cc1c[nH]c2ccccc12)NC(=O)[C@H](C)NC(=O)[C@H](Cc1ccc(O)cc1)NC(=O)[C@H](Cc1c[nH]c2ccccc12)NC(=O)C(C)(C)NC(=O)C(C)(C)NC(=O)C(C)(C)NC(=O)C(C)(C)N)C(C)C)C(N)=O` [Compound 80] (H-[Aib][Aib][Aib][Aib]WYAWYAWYPPVV-NH2), the “Efficacy (% of 1)” value in data set [1] (Table 2, 14 h) is 113 ± 4%. For the same compound, the EC50 in data set [1] (setting [5]) is 0.28 ± 0.1 µM. The IC50 in the data set on Jurkat lymphocytes (setting [6]) was greater than 16 µM. Moreover, the solubility thermodynamic at 24 h in data set [2] (setting [7]) came out at 5 ± 2 µM (≈ 9.7 µg/mL).

Compound `CC(C)CCC[C@@H](C)[C@H]1CC[C@H]2[C@@H]3CC=C4C[C@@H](OC(=O)NCCC(=O)NCCC(=O)N[C@@H](CCC(=O)O)C(=O)N[C@@H](CCC(=O)O)C(=O)NCCOCCOCCOCCC(=O)NCCOCCOCCOCCC(=O)NC(C)(C)C(=O)NC(C)(C)C(=O)NC(C)(C)C(=O)NC(C)(C)C(=O)N[C@@H](Cc5c[nH]c6ccccc56)C(=O)N[C@@H](Cc5c[nH]c6ccccc56)C(=O)N[C@@H](C)C(=O)N[C@@H](Cc5ccc(O)cc5)C(=O)N[C@@H](Cc5c[nH]c6ccccc56)C(=O)N5CCC[C@H]5C(=O)N5CCC[C@H]5C(=O)N[C@H](C(=O)N[C@@H](C)C(N)=O)C(C)C)CC[C@]4(C)[C@H]3CC[C@]12C` [Compound 34, R″ = BEEOOUUUUWWAYWPPVA-CONH2] ({Cholesteryloxycarbonyl-βAla-βAla}-EE[PEG3][PEG3][Aib][Aib][Aib][Aib]WWAYWPPVA-NH2) returned an EC50 in data set [1] (14 h) of 0.1 µM. The compound also had an IC50 in the data set with Jurkat lymphocytes (48 h) of 17 µM. For the same compound, the solubility at 24 h in data set [2] (setting [3]) amounted to 405 µM (≈ 1110 µg/mL).

Turning to `CC(C)[C@H](NC(=O)[C@@H](NC(=O)[C@@H]1CCCN1C(=O)[C@@H]1CCCN1C(=O)[C@H](Cc1ccc(O)cc1)NC(=O)[C@H](Cc1c[nH]c2ccccc12)NC(=O)[C@H](C)NC(=O)[C@H](Cc1c[nH]c2ccccc12)NC(=O)[C@H](Cc1c[nH]c2ccccc12)NC(=O)C(C)(C)NC(=O)C(C)(C)NC(=O)C(C)(C)NC(=O)C(C)(C)N)C(C)C)C(N)=O` [Compound 54] (H-[Aib][Aib][Aib][Aib]WWAWYPPVV-NH2), the “Efficacy (% of max. 1)” value in data set [1] (Table 1, 14 hours) is recorded as 100%. For the same compound, in data set [1] (Table 2, 14 h), the “Efficacy (% of 1)” value was 101 ± 2%. In addition, the EC50 in data set [1] (setting [8]) turned out to be 3.8 µM; in data set [1] (setting [5]), 5.4 ± 1.6 µM. In the data set on Jurkat lymphocytes (setting [6]), the IC50 is greater than 16 µM. For the same compound, in data set [2] (setting [7]), the solubility thermodynamic at 24 h stood at 8 ± 1 µM (≈ 12.3 µg/mL).

As for `CC(C)[C@H](NC(=O)[C@@H](NC(=O)[C@@H]1CCCN1C(=O)[C@@H]1CCCN1C(=O)[C@H](Cc1ccc(O)cc1)NC(=O)[C@H](Cc1c[nH]c2ccccc12)NC(=O)[C@H](Cc1ccc(O)cc1)NC(=O)[C@H](Cc1c[nH]c2ccccc12)NC(=O)[C@H](C)NC(=O)[C@H](Cc1ccc(O)cc1)NC(=O)[C@H](Cc1c[nH]c2ccccc12)NC(=O)[C@H](C)NC(=O)C(C)(C)NC(=O)C(C)(C)NC(=O)C(C)(C)NC(=O)C(C)(C)N)C(C)C)C(N)=O` [Compound 81] (H-[Aib][Aib][Aib][Aib]AWYAWYWYPPVV-NH2), the “Efficacy (% of 1)” value in data set [1] (Table 2, 14 h) was 83 ± 13%. Further, the EC50 in data set [1] (setting [5]) was 9 ± 6 µM. Also, the IC50 with Jurkat lymphocytes (setting [6]) was greater than 8 µM. Further, the solubility thermodynamic at 24 h in data set [2] (setting [7]) came to 3 ± 1 µM (≈ 5.82 µg/mL).

As to `CC(=O)NC(C)(C)C(=O)NC(C)(C)C(=O)NC(C)(C)C(=O)N[C@@H](Cc1c[nH]c2ccccc12)C(=O)N[C@@H](Cc1c[nH]c2ccccc12)C(=O)N[C@@H](C)C(=O)N[C@@H](Cc1ccc(O)cc1)C(=O)N[C@@H](Cc1c[nH]c2ccccc12)C(=O)N1CCC[C@H]1C(=O)N1CCC[C@H]1C(=O)N[C@H](C(=O)N[C@@H](C)C(N)=O)C(C)C` [Compound 41] (Ac-[Aib][Aib][Aib]WWAYWPPVA-NH2), the “Endosome disruption activity (in words)” value in data set [1] (Jurkat endosome disruption assay) is reported as “substantial endosome disruption activity”. Further, in data set [1] (Table 1, 14 hours), the “Efficacy (% of max. 1)” value is on record as 53%. In addition, the EC50 in data set [1] (setting [8]) came to 5.9 µM. Besides, in the data set with Jurkat lymphocytes (read-out: Toxicity (IC50), Table 1, Jurkat lymphocytes, 48 h at 37° C.), the IC50 was greater than 100 µM. Also, the solubility thermodynamic at 24 h in data set [2] (setting [4]) came to 24 ± 3 µM (≈ 35.3 µg/mL).

In data set [1] (14 h), `C#CC[C@H](NC(=O)[C@H](CCC(=O)O)NC(=O)[C@H](CCC(=O)O)NC(=O)CCNC(=O)CCNC(=O)O[C@H]1CC[C@@]2(C)C(=CC[C@H]3[C@@H]4CC[C@H]([C@H](C)CCCC(C)C)[C@@]4(C)CC[C@@H]32)C1)C(=O)NCCOCCOCCOCCC(=O)NCCOCCOCCOCCC(=O)NC(C)(C)C(=O)NC(C)(C)C(=O)NC(C)(C)C(=O)NC(C)(C)C(=O)N[C@@H](Cc1c[nH]c2ccccc12)C(=O)N[C@@H](Cc1c[nH]c2ccccc12)C(=O)N[C@@H](C)C(=O)N[C@@H](Cc1ccc(O)cc1)C(=O)N[C@@H](Cc1ccc(O)cc1)C(=O)N1CCC[C@H]1C(=O)N1CCC[C@H]1C(=O)N[C@H](C(=O)N[C@H](C(N)=O)C(C)C)C(C)C` [Compound 37, R″ = BEEZOOUUUUWWAYYPPVV-CONH2] ({Cholesteryloxycarbonyl-βAla-βAla}-EE[Pra][PEG3][PEG3][Aib][Aib][Aib][Aib]WWAYYPPVV-NH2) returned an EC50 of 0.04 µM and an IC50 of 0.04 µM. This compound also came in with an IC50 in the data set with Jurkat lymphocytes (48 h) of 3 µM. For the same compound, the solubility thermodynamic at 24 h in data set [2] (setting [4]) was determined as 348 ± 13 µM (≈ 986 µg/mL).
